# Results: patent publication US9745629B2, “In vitro method for screening for candidate compounds for preventing and/or attenuating ageing of the skin, and/or for hydrating the skin” (CHANEL PARFUMS BEAUTE, priority 2011, dated 2017)
# “And” between values parts separate entries of the source, which are not always exact repeats. Equal values may be shown once.
# System: LARGE protein
# Test: Stimulation of the expression of LARGE protein in normal human keratinocytes (immunocytochemical staining)
# Type: cell-based
# Conditions: 48 hours, visual staining scale from 1 to 5, untreated keratinocytes 2.03, one donor
# Procedure: The effect of the Resveratrol used in Example 4 on the expression of the LARGE protein was evaluated in cultured keratinocytes. Keratinocytes derived from neonatal foreskin (Invitrogen, CA, USA) were cultivated in 6-well plates containing cover glasses coated with poly-L-ornithine (Sigma, MO) in keratinocyte culture medium with supplement (EpiLife, Invitrogen). After culturing for 24 hours at 37° C., the 40-50% confluent cells were washed with PBS buffer (Invitrogen, CA) and incubated with basal keratinocytes culture medium (EpiLife, Invitrogen) containing the extract to be tested, for 48 hours. The cytotoxicity of the extract was evaluated in human cultured keratinocytes before testing the activity. To quantify the expression of the LARGE protein in a treated sample relative to an untreated sample, immunocytochemical staining (ICC) of cover glasses with cultured keratinocytes was used. Staining was performed in triplicates, with primary goat anti-human LARGE antibodies (Santa Cruz, Calif.) and secondary donkey anti-goat antibodies (Rockland Immunochemicals, PA). The staining was visualized with AEC system (Lab Vision Corporation, CA). The extent of staining was assessed on thirty random images for each experimental condition, and a visual assessment of the staining was made using a scale from 1 to 5, with 1 being the least intense and 5 being the most intense. The significance of the difference between mean values was assessed using unpaired t test.
smiles,measurement,setting,value
Oc1ccc(C=Cc2cc(O)cc(O)c2)cc1 [Resveratrol],Stimulation of LARGE protein,0.0005% (w/w),2.7 (±0.88) and 2.70
same,Stimulation of LARGE protein,0.001% (w/w),2.67 (±0.55) and 2.67
same,Stimulation of LARGE protein,0.002% (w/w),3.8 (±0.93) and 3.80
